# Residue numbers refer to the chain shown, from its start.
# What was measured:
# Assay in all cases: IP1 accumulation assay in transiently transfected HEK293T cells
# Type in all cases: cell-based
# Conditions in all cases: 24-hour treatment
# GNAQ^G48V = target: T1, GNAQ^G48V (Homo sapiens, UniProt P50148, G48V)
# T1 construct: host or cells: melan-a (immortalized mouse melanocytes), retroviral transduction with MSCV-Puro
# T1 sequence (P50148 1-359 G48V): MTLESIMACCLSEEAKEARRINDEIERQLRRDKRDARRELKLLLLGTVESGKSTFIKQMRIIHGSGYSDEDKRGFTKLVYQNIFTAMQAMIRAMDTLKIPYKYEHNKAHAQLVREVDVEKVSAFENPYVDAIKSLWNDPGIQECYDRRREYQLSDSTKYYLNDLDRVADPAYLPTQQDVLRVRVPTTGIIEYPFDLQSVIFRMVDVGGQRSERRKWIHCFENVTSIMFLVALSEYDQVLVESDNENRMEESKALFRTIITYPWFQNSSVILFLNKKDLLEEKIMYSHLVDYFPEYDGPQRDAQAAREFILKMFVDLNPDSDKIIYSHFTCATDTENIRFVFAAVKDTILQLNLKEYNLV
# Description: (§1) Cells were treated with YM at increasing doses for 24 hours. Error bars, s.e.m. from three biological replicates, each with three technical replicates.
# (§2) Exogenous Gene Expression. HEK293T cells were transiently transfected to express vectors containing synthetic CYSLTR2 (Moore A R, et al., Nat Genet. 48(6):675 (2016)) and GNAQ. Genewiz was used to codon optimize these sequences for expression in mammalian cells. The human GNAQ α-subunit plasmids encoding for GNAQ mutants Q209L, R183Q and G48V were generated by Quick Change (Agilent Technologies, Santa Clara, Calif.) site-directed mutagenesis. HEK293T cells were transiently transfected with the plasmids encoding for GNAQ WT and mutants subcloned into pcDNA3.1(+) using Lipofectamine according to the manufacturer's instructions. Briefly, 9,000 HEK293T cells were transfected in low-volume 384-well plates with 11 ng of total DNA/well for 24 hours. Human cDNAs for WT CYSLTR2 and GNAQ were obtained from Origene and cloned into MSCV-Puro (Addgene plasmid #68469) for stable expression in melan-a cells via retroviral transduction with X-tremeGENE 9 (Sigma-Aldrich, St. Louis Mo.). Quikchange primers were used to introduce the various mutant constructs. All constructs were confirmed by sequencing. The primers used in the experiments described herein are provided below: […]
# (§3) IP1 Accumulation Assay. IP1 concentrations in GNAQ-transfected HEK293T cells, GNAQ-expressing melan-a cells and uveal melanoma cells was measured using a competitive homogenous time resolved fluorescence (HTRF) assay (CisBio, Bedford, Mass.). Briefly, 9,000 transiently transfected-HEK293T cells, 5,000 melan-a cells and 5,000 uveal melanoma cells were seeded in low-volume 384-well plates in 7 μL media for 24 hours prior YM-254890 treatment. Cells were then treated with various concentrations of YM-254890 diluted in the appropriate media at 37° C. for 3 hours or 24 hours. […] Following incubation, cells were lysed by adding 3 μL/well of d2-labeled IP1 analogue as the fluorescence acceptor and the Terbium cryptate-labeled anti-IP1 mAb as the fluorescence donor, diluted in the kit-supplied lysis buffer. The plates were incubated overnight at RT and time-resolved fluorescence signals were read using the BioTek Synergy NEO plate reader (BioTek Instruments, Winooski, Vt.) at 620 nm and […]. Results were calculated as a 665 nm/620 nm signal ratio, and IP1 concentrations were interpolated from a standard curve prepared using the supplied IP1 calibrator. […] Dose-response curves and bar graphs were analyzed using GraphPad Prism 7.0 software. […]
# GNAQ^R183Q = target: T2, GNAQ^R183Q (Homo sapiens, UniProt P50148, R183Q)
# T2 construct: host or cells: melan-a (immortalized mouse melanocytes), retroviral transduction with MSCV-Puro
# T2 sequence (P50148 1-359 R183Q): T1 sequence (P50148 1-359 G48V) with V48G, R183Q
# Description: as §1, §2, §3
# GNAQ^Q209L = target: T3, GNAQ^Q209L (Homo sapiens, UniProt P50148, Q209L)
# T3 construct: host or cells: melan-a (immortalized mouse melanocytes), retroviral transduction with MSCV-Puro
# T3 sequence (P50148 1-359 Q209L): T1 sequence (P50148 1-359 G48V) with V48G, Q209L
# Description: as §1, §2, §3
substance,measurement,setting,value
YM-254890,potency of inhibition of IP1 accumulation,GNAQ^G48V,subnanomolar potency
same,fold less sensitive to YM compared to CYSLTR2^L129Q and GNAQ^G48V (IP1 accumulation),GNAQ^R183Q,~20 fold
same,inhibition of signaling (IP1 accumulation),GNAQ^Q209L,incompletely/poorly inhibited
same,relative sensitivity to YM (IP1 accumulation),GNAQ^Q209L,most resistant
